The text below walks through data of patent publication US20060234990A1, “Compositions of boswellic acids derived from Boswellia serrata gum resin, for treating lymphoproliferative and autoimmune conditions” (SAMI LABS LTD., priority 2000, published 2006).

Data set [1] deals with HL-60 cells. The data set is described as follows: RNA synthesis ([3H]uridine incorporation) in HL-60 cells. The class given is cell-based. Conditions: Homo sapiens; cultured HL-60 cells incubated for 2 hours; read-out: 50% inhibitory activity on the incorporation of [3H]-uridine. From the text: (§1) FIGS. 1, 2, and 3 show the inhibitory effects of compounds I-IV on the DNA, RNA and protein synthesis of HL-60 cells, respectively (in FIG. 1-3, lines 1, 2, 3 and 4 refer to the data of compounds I, II, III and IV, respectively). Tables 1 and 2 show the inhibitory effect of a “total organic acids” extract of the exudate of Boswellia serrata on DNA, RNA and protein synthesis or growth in HL-60 cells. […] The initial rates of incorporation of [^3H]-thymidine, [^3H]-uridine and [^3H]-leucine into trichloroacetic acid (TCA)-insoluble material were utilized to estimate the rates of DNA, RNA, and protein synthesis, respectively, in HL-60 cells. […] the inhibitory effects of compounds I-IV and the alcoholic extract on DNA. RNA and protein synthesis of HL-60 cells were in a dose-dependent manner. […] 0.9 and 0.6 μM, respectively, the incorporation of [3H]-uridine at concentrations of 7.1, 2.3. 2.2 and 0.5 μM, respectively, and the incorporation of [3H]-leucine into protein at concentrations of 6.3, 5.4, 5.1 and 4.1 μM, respectively, in cultured HL-60 cells incubated for 2 hours.
(§2) Various concentrations of the Boswellia serrata extract, as indicated above, were added to 1 mL of HL-60 cells suspended in RPMI medium. [^3H]thymidine (50 μCi/μmol: […]), [^3H]uridine (55 μCi/μmol; 5 μL), [^3H]leucine (200 μCi/μmol: 10 μL), were added to the cell suspension and incubated at 37° C. for 120 min. Reactions were terminated by addition of 3 mL of cold PBS, and the rates of DNA. RNA, and protein synthesis were determined.

For data set [2], the system named is HL-60 cells. The data set can be described thus: DNA synthesis ([3H]thymidine incorporation) in HL-60 cells. Type of data set: cell-based. Conditions: Homo sapiens; cultured HL-60 cells incubated for 2 hours; read-out: 50% inhibitory activity on the incorporation of [3H]-thymidine into DNA.
Excerpt: as §1, §2
[^3H]Thymidine (3 μL; 50 μCi/μmol), vehicle or various concentrations of BSE in vehicle were added to 1 mL of HL-60 cells (5×10^5 cells/mL) in culture, and the cultures were incubated at 37° C. for 120 min. Data are expressed as the mean±SE calculated from triplicate studies. Data in parentheses are the percent inhibition of [^3H]thymidine incorporation into the DNA of HL-60 cells.
Background: Uptake of a labelled nucleoside into DNA is a usual measure of proliferation.

Data set [3] has as its system HL-60 cells. The data set is described as follows: Protein synthesis ([3H]leucine incorporation) in HL-60 cells. Type of data set: cell-based. The conditions noted are these: Homo sapiens; cultured HL-60 cells incubated for 2 hours; read-out: 50% inhibitory activity on the incorporation of [3H]-leucine into protein.
Excerpt: as §1, §2

Data set [4] has as its system HL-60 cells. The data set can be described thus: Reversibility of DNA synthesis inhibition after preincubation and washing. Conditions: preincubated at 2 and 8 μM for 30 min at 37° C., washed with PBS. Type of data set: cell-based, human. As for the experimental part: In this experiment HL-60 cells were preincubated with compound IV at 2 and 8 μM for 30 min at 37° C., washed with phosphate buffer saline and [3H]-thymidine was added to the culture. At desired times, the reactions were terminated and the rates of DNA synthesis were determined.

Data set [5] is described as follows: Cell viability of HL-60 cells, trypan blue exclusion method. The conditions noted are these: human, 4 days incubation. The class given is cell-based. As for the experimental part:
(§3) The effect of compound IV on cellular growth of HL-60 cells was tested. […] In order to test whether this growth was the result of cell cytotoxicity, the effects of this compound on cell viability were examined after 4 days incubation using the trypan blue exclusion method. The cells viability at concentrations of 0, 1, 4, 16 μM were 97.0, 96.8, 96.5, or 96.7%, respectively.

The subject of data set [6] is HL-60 cells. The data set can be described thus: Cellular growth of HL-60 cells in culture. The class given is cell-based. The conditions noted are these: Homo sapiens, HL-60, 96 h, 37° C., 4 days. As for the experimental part:
as §3
Various concentrations of BSE, as indicated above, were added to the HL-60 cell cultures. These cultures were counted daily using a hemacytometer under a microscope with 10× magnification every 24 hours. Data are expressed as the mean=SE calculated from triplicate studies. Data in parentheses are the percent inhibition of cell growth.

A further data set deals with T1, human leukocyte elastase (Homo sapiens, UniProt P08246).
T1 sequence (P08246 30-267): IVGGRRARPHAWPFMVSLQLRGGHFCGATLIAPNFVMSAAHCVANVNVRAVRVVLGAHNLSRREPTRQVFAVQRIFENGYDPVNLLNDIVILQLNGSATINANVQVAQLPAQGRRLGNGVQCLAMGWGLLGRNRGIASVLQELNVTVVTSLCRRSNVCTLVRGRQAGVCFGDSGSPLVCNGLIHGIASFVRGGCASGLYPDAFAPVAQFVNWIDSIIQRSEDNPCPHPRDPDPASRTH
The conditions noted are these: in vitro; Safayhi et al (1997); cited from earlier work.

Take `CC1CCC2(C)CCC3(C)C(=CCC4(C)C3CCC3C(C)(C(=O)O)C(O)CCC34C)C2C1C` (stereo not drawn) [I, β-Boswellic Acid]: the IC50 in the data set on HL-60 cells [1] came out at 7.1 µM; in the data set on HL-60 cells [2], 3.7 µM; in the data set on HL-60 cells [3] it was 6.3 µM.
On to `CC(=O)OC1CCC2(C)C(CCC3C4(C)CCC5(C)CCC(C)C(C)C5C4=CCC32C)C1(C)C(=O)O` (stereo not drawn) [II, Acetyl-β-Boswellic Acid], for which the IC50 came to 2.3 µM with HL-60 cells [1], 1.4 µM with HL-60 cells [2] and 5.4 µM in the data set on HL-60 cells [3].
The matching figures for `CC1CCC2(C)CCC3(C)C(=CC(=O)C4(C)C3CCC3C(C)(C(=O)O)C(O)CCC34C)C2C1C` (stereo not drawn) [III, 11-keto-β-Boswellic Acid]: 2.2 µM, 0.9 µM and 5.1 µM.
In general, viability refers to a read-out of living cells in per cent, often relative to untreated cells. A higher viability goes with less harm to the cells. In general, inhibition refers to the drop in the measured response relative to a control, in per cent. A lower inhibition goes with little suppression. For `CC(=O)OC1CCC2(C)C(CCC3C4(C)CCC5(C)CCC(C)C(C)C5C4=CC(=O)C32C)C1(C)C(=O)O` (stereo not drawn) [IV, Acetyl-11-keto-β-Boswellic Acid], the IC50 was 0.5 µM in the data set with HL-60 cells [1], 0.6 µM with HL-60 cells [2], 4.1 µM in the data set on HL-60 cells [3] and around 15 µM on human leukocyte elastase. In addition, the “inhibitory action on DNA synthesis after washing” value in the data set on HL-60 cells [4] is given as “irreversible”. In data set [5] (1 μM), this compound gave a viability at 4 days, 1 µM of 96.8%. Moreover, the viability at 4 days, 4 µM in data set [5] (4 μM) is 96.5%. For the same compound, in data set [5] (16 μM), the viability at 4 days, 16 µM turned out to be 96.7%. This compound also registered an inhibition at 1 µM in the data set with HL-60 cells [6] (1 μM) of 54.5%. For the same compound, the inhibition at 4 µM in the data set with HL-60 cells [6] (4 μM) is 71.8%. In the data set on HL-60 cells [6] (16 μM), this compound had an inhibition at 16 µM of 98.6%.
